Reference: patent US20240109855A1, “ANTI-QUORUM SENSING, ANTI-BIOFILM, AND INFLAMMATION ATTENUATING COMPOUNDS, COMPOSITIONS, AND METHODS OF USING SAME” (priority 2021, published 2024)
“Also recorded” adds a separate entry of the source. Where two headings read alike, the source gives them in different places.

Columns and labels:
[1] = tested on: gram-positive and gram-negative bacteria; assay: Antibacterial activity, overall statement (diffusion discs test); assay type: cell-based; conditions: for Antibacterial: Table 6 summary; for Antibacterial activity, in words: running text
Description: All derivatives were dissolved in acetonitrile to a final concentration of 40 mM. Twenty (20) μl were loaded onto Whatman filter paper discs and dried. Bacillus subtilis, Staphylococcus aureus, and Acinetobacter baumannii were grown in LB (Lenox) O.N. One hundred (100) μl from the starter culture was plated on LB agar (Miller) dishes. Streptococcus sobrinus, and Streptococcus mutans grown in Brain Heary Infusion (BHI, Himedia) O.N. were similarly plated on BHI agar dishes. Discs were laid and incubated O.N. in 37° C. and the diameter of inhibition of bacterial growth was measured.
The antibacterial activities of derivatives showing QSI are outlined in Table 4. […] Similar to that idea, synthetic derivatives of furanon (product of marine algae) shown in-vivo QSI activity without antibacterial activity followed by immune response of the infected animal. Phenolic compounds decrease QS and virulence in PA01 and Chromobacterium violaceum. There is increasing number of studies, searching for compounds that targeting non-vital processes to combat bacteria.

[2] = tested on: quorum sensing (CV026 and KYC55); assay: Quorum sensing inhibition, overall statement over the bio-reporter bacteria; assay type: cell-based; conditions: for QSI: Table 6 summary; for QSI activity overall, in words: running text
Description: (§1) TLC preparation: all derivatives were dissolved in 100% acetonitrile to a concentration of 40 mM. Then placed 20 μlon the same spot on the TLC and let the solvent evaporate before use. CV026: few colonies were transferred to liquid LB (Lenox) for overnight incubation at 30° C. in a 45 degree in orbital shaker. At the O.D. 0.8 3 ml of the starter was added to preheated soft LB agar containing 500 nM of 3-oxo-C6 (Sigma-Aldrich). The mixture was then loaded on the TLC in a glass plate for O.N. incubation in 30° C. The next day inhibition zone was measured, while QS is taking place bacteria produce purple pigment, and when QS is inhibited no pigment is produced. KYC55 (pJZ372) (pJZ384) (pJZ410): 20 μl from the frozen stock into 25 ml AT media (AT buffer×20: 1.57 M KH2PO4 pH=7.3. AT salts mix×20: 300 mM (NH4)2SO4, 13 mM MgSO4, 1.4 mM CaCl2, 0.4 mM FeSO4·7H2O, 0.26 mM MnSO4·H2O. AT media: 50 ml×20 AT-buffer, 50 ml×20 AT-salts, 10 ml 50% (w/v) glucose, add 890 ml to final volume of 1 liter.) For O.N. at 30° C. in an orbital shaker. Into preheated water agar with 25 ml AT-buffer, and 60 μg/ml X-gal and 5 nM 3-oxo-c8 (both from Sigma-Aldrich) 25 ml of the starter was added. Then, that mixture was loaded on the TLC in glass plate for O.N. incubation in 30° C. The next day the inhibition zone was measured. The bacteria produce blue pigment during QS and when QS is inhibited no pigment is produced. KYC55 (pJZ372) (pJZ384) (pJZ410) preservation in tetracycline (1 μg/ml), spectinomycin (100 μg/ml), gentamicin (100 μg/ml) (all antibiotics from Sigma Aldrich) in AT media O.N. then centrifuged and suspend in 15% glycerol frozen and maintained at −80° C.
All the synthesized compounds were evaluated for quorum sensing inhibition against two bioreporter bacteria strains, Chromobacterium violaceum (CV026) and Agrobacterium tumefaciens (KYC55) and the results are summarized in Table 1.

[3] = tested on: Agrobacterium tumefaciens (KYC55); assay: Quorum sensing inhibition test with bio-reporter KYC55 (TLC overlay); assay type: cell-based; conditions: for Degree of QSI of KYC55: Table 1, coumaperine derivatives, 40 mM in ~20 μL acetonitrile dried on TLC plate, overnight, color intensity; for QSI activity against KYC55, in words: running text; on Degree of QSI of KYC55: key: −: no inhibition; +: low inhibition; ++: medium inhibition; +++: strong inhibition; on Degree of quorum sensing inhibition (QSI), KYC55: key: −: no inhibition; +: low inhibition; ++: medium inhibition; +++: strong inhibition
Description: as §1

in vitro = assay: in vitro
Description: (§2) The human Hodgkin's Lymphoma derived L428 cell line was used as a model. The cells were grown in RPMI Medium 1640 with 10% FBS, 1% Glutamine and pen-strep (all from Biological Industries, Israel). […] Thirty thousand (30,000) cells/well were placed in 96-well plates with the coumaperine derivatives at different concentrations or with vehicle (DMSO) at a final volume of 200 μl. The plates were incubated for 48 hrs. at 37° C. and 5% CO2 followed by the addition of 50 μl of the XTT reagent tetrazolium-formazan, (Biological Industries, Israel) was added for 2 hrs. at 37° C., 5% CO2. In living cells, mitochondria […] the tetrazolium-formazan salt, thereby generating a color absorbing product at 450 nm. Absorbance was measured at 450 nm and 650 nm in an enzyme-linked immunosorbent assay (ELISA) plate reader (Multiskan Spectrum, Version 1.2), and recorded. Absorption values at 650 nm were subtracted from the blank and the 450 nm values. The results were normalized to the control (treated with DMSO).
(§3) Viability was determined in triplicate in two independent tests. The results were normalized to vehicle (DMSO) treated cells, (100% viability). Mean+SD.

L428 cells = assay: in vitro
Description: as §2, §3

NF-kB = assay: NF-kB-luciferase reporter gene assay in L428 cells; assay type: cell-based, human; conditions: Table 6 summary; further: key: +: active; −: inactive
Description: FIG. 7 includes a vertical bar graph showing a dose response of NF-kB activation according to an NF-kB reporter gene luciferase assay. L428 cells were stably transfected with the NF-kB luciferase reporter gene. The cells were incubated with the compounds at different concentrations for 2 hours. […] The results represent the percentage of NF-kB activation as compared to vehicle (DMSO) treated cells. All samples were normalized to protein concentration. Mean+SD, Two-way ANOVA and Tukey's multiple comparison test. 95% confidence interval (p-values *≤0.0332, **≤0.0021, ***≤0.0002).
L428 cells stable transfectants with the luciferase NF-kB-Luc reporter gene were generated previously described (Ozer et al., 2009), and were maintained in 500 μg/ml of G418 (G418 disulfate salt, Sigma-Aldrich). The cells (5×10^5 /well in triplicate) were incubated for 2 hrs. in 1 ml of medium containing the solvent (DMSO) or different concentrations of the molecules tested. Cells were then harvested, lysed, and monitored by a luciferase reporter assay kit (Promega) according to the manufacturer's instructions. Measurements were carried out using a luminometer (Promega, GLOMAX™ 20/20 Luminometer). Data were normalized to the protein concentration in each lysate as measured by the Bradford method (BioRad) and normalized to the control. Experiments were repeated at least three times.

[4] = tested on: Chromobacterium violaceum (CV026); assay: Quorum sensing inhibition test with bio-reporter CV026 (TLC overlay); assay type: cell-based; conditions: for Degree of QSI of CV026: Table 1, coumaperine derivatives, 40 mM in ~20 μL acetonitrile dried on TLC plate, overnight, color intensity; for QSI activity against CV026, in words: running text; on Degree of QSI of CV026: key: −: no inhibition; +: low inhibition; ++: medium inhibition; +++: strong inhibition; on Degree of quorum sensing inhibition (QSI), CV026: key: −: no inhibition; +: low inhibition; ++: medium inhibition; +++: strong inhibition
Description: as §1

[5] = Table 2, piperlongumine derivatives

Row | Compound | Antibacterial [1] | QSI [2] | QSI activity overall, in words [2] | Degree of QSI of KYC55 [3] | Cytotoxic activity, in words (L428 cells) | Anti-inflammatory (NF-kB) | Degree of QSI of CV026 [4] | QSI activity against CV026, in words [4] | LC50 (L428 cells) | QSI activity against KYC55, in words [3] | further results
1 | CC(=O)Oc1ccc(/C=C/C=C/C(=O)N2CCCCC2)cc1 [CP-158, 4-((1E,3E)-5-oxo-5-(piperidin-1-yl)penta-1,3-dienyl)phenyl acetate] | − | + | anti QS activity | ++ | not cytotoxic | + | +++ | more effective against CV026 than KYC55 |  |  | Antibacterial activity, in words [1]: did not show antibiotic activity; CC50 at 48 h (in vitro; human, LC50): 285 µM; Cytotoxic (L428 cells): +
2 | COc1ccc(/C=C/C(=O)N2CCCCC2)cc1 [CP-282] |  |  |  | ++ | no cytotoxic activity |  | +++ | more effective against CV026 than KYC55 | Non-toxic |  | 
3 | Piperine [reference compound] |  |  | do not inhibit | − |  |  | − | inactive |  | inactive | 
4 | COc1cc(/C=C/C=C/C(=O)N2CCCCC2)ccc1O [CP-205] | − | + |  | ++ | no cytotoxic activity | + | ++ | moderate activity; also recorded: moderately active | Non-toxic | moderate activity; also recorded: moderately active | Cytotoxic (L428 cells): −
5 | COc1cc(/C=C/C(=O)NCc2ccccc2)cc(OC)c1OC [PL-20, (E)-N-benzyl-3-(3,4,5-trimethoxyphenyl)acrylamide] |  |  |  |  |  |  |  | moderate activity | Non-toxic | inactive | Degree of quorum sensing inhibition (QSI), KYC55 [3, 5]: −; Degree of quorum sensing inhibition (QSI), CV026 [4, 5]: ++
6 | O=C(/C=C/c1ccc(F)cc1)N1CCCCC1 [CP-273] |  |  | low QSI | − |  |  | + | low activity | Non-toxic | inactive | 
7 | O=C(/C=C/c1ccc2c(c1)OCO2)N1CCCCC1 [CP-270, (E)-3-(benzo)-1-(piperidin-1-yl)prop-2-en-1-one] |  |  |  | +++ | no cytotoxic activity |  | +++ | highly QSI active | Non-toxic | highly QSI active | Antibacterial activity, in words [1]: did not
8 | COc1ccc(/C=C/C=C/C(=O)N2CCCCC2)cc1 [CP-38, (2E,4E)-5-(4-methoxyphenyl)-1-(piperidin-1-yl)penta-2,4-dien-1-one] |  |  |  | + |  |  | ++ | moderate |  | low | CC50 at 48 h (in vitro; human, LC50): 47.4 µM
9 | O=C(/C=C/C=C/C=C/c1ccc2c(c1)OCO2)N1CCCCC1 [CP-155, (2E,4E,6E)-7-(benzo[d][1,3]dioxol-5-yl)-1-(piperidin-1-yl)hepta-2,4,6-trien-1-one] |  |  | do not inhibit | − |  |  | − | inactive |  | inactive | 
10 | O=C(/C=C/c1ccc([N+](=O)[O-])cc1)N1CCCCC1 [CP-286] | − | + | anti QS activity | ++ |  | + | + | low | Non-toxic | moderate | Antibacterial activity, in words [1]: did not show antibiotic activity; Cytotoxic (L428 cells): −
11 | COc1cc(/C=C/C(=O)N2CCC=CC2=O)cc(OC)c1OC [PL, Piperlongumine, reference compound] |  |  | inactive |  |  |  |  | inactive |  | inactive | Degree of quorum sensing inhibition (QSI), KYC55 [3, 5]: −; Degree of quorum sensing inhibition (QSI), CV026 [4, 5]: −
12 | COc1cc(CCC(=O)CC(=O)CCc2ccc(O)c(OC)c2)ccc1O [HCU, Tetrahydrocurcumin] | − | + |  |  |  | + |  |  |  |  | Degree of quorum sensing inhibition (QSI), KYC55 ([3]; Table 3, curcumin derivatives): +++; CC50 at 48 h (in vitro): 102 µM; Cytotoxic activity, in words (L428 cells; L428 cells): cytotoxic; Cytotoxic (L428 cells; Table 6 summary): +; Degree of quorum sensing inhibition (QSI), CV026 ([4]; Table 3, curcumin derivatives): +
13 | COc1ccc(/C=C/C(=O)N2CCCCC2)cc1OC [CP-289] |  |  |  | +++ | no cytotoxic activity |  | + |  | Non-toxic | more effective against KYC55 than CV026 | 
14 | O=C(/C=C/c1ccc2c(c1)OCO2)N1CCCCC1 [CP-215, (E)-3-(benzo[d][1,3]dioxol-5-yl)-1-(piperidin-1-yl)prop-2-en-1-one] | − | + | active; also recorded: strong |  |  | + |  | highly active | Non-toxic | highly active | Antibacterial activity, in words [1]: did not show antibiotic activity; QSI activity overall, in words ([2]; listed as CP215): anti QS activity; Cytotoxic (L428 cells): −
15 | CCOC(=O)CNC(=O)/C=C/c1cc(OC)c(OC)c(OC)c1 |  |  |  |  |  |  |  |  |  |  | Degree of quorum sensing inhibition (QSI), KYC55 [3, 5]: −; Degree of quorum sensing inhibition (QSI), CV026 [4, 5]: −
